Among the data in ChEMBL document CHEMBL4152250, “Antibacterial and anti-TB tat-peptidomimetics with improved efficacy and half-life” (Eur J Med Chem, 2018) are IC50 and MIC values, retold here.

pIC50: −log10 of the molar value. ≈ marks a conversion by molar mass, not a printed value. Numbered stars: 1 amine (or outer) side, 2 acyl side, 3 side chain; on linkers, the order of the positions; unused ones are H or OH. Square brackets hold non-standard residues; d marks the D form. Peptide text beside a SMILES is read from it. Pro(N-(CH2)3Gua,cis-4-NH-) = N=C(N)NCCCN1C[C@@H](N[*:1])C[C@H]1C(=O)[*:2]; Pro(cis-4-guanidino) = NC(N)=N[C@@H]1CN[C@H](C(=O)O)C1; X1 = NCCCN1C[C@@H](N[*:1])C[C@H]1C(=O)[*:2]; Ethylenediamine = C(CN[*:2])N[*:1]; βAla = NCCC(=O)O

Assay [1] deals with Mycobacterium tuberculosis. As to the kind of experiment: Antitubercular activity against multidrug-resistant dormant stage of Mycobacterium tuberculosis H37Ra after 12 days by XRMA. It counts as functional, organism-based. The note with it: 288 h.
Assay [2] relates to Mycobacterium tuberculosis. The assay can be described thus: Antitubercular activity against multidrug-resistant active stage of Mycobacterium tuberculosis H37Ra after 8 days by XRMA. It counts as functional, organism-based. The note with it: 192 h.

Regarding `CC(=O)N[C@@H](Cc1ccccc1)C(=O)NCC(=O)N[C@@H](CCCNC(=N)N)C(=O)N[C@@H](CCCCN)C(=O)N[C@@H](CCCCN)C(=O)N[C@@H](CCCNC(=N)N)C(=O)N[C@@H](CCCNC(=N)N)C(=O)N[C@@H](CCC(N)=O)C(=O)N[C@@H](CCCNC(=N)N)C(=O)N[C@@H](CCCNC(=N)N)C(=O)N1C[C@@H](NC(=N)N)C[C@H]1C(=O)NCCC(N)=O` (Ac-FGRKKRRQRR[Pro(cis-4-guanidino)][βAla]-NH2), in assay [1], the pIC50 – broadly, the IC50 on a negative log10 scale, so that one unit is a factor of ten – is 5.51 and the lowest concentration to inhibit growth (MIC) was 12.9 µM (≈ 21.3 µg/mL). For the same compound, in assay [2], the negative logarithm of the IC50 (pIC50) is 5.51 and the MIC – broadly, the smallest concentration in the dilution series that meets the test's criterion for growth inhibition – is 22.5 µM (≈ 37.2 µg/mL).

For `CC(=O)N[C@@H](Cc1ccccc1)C(=O)NCC(=O)N[C@@H](CCCNC(=N)N)C(=O)N[C@@H](CCCCN)C(=O)N[C@@H](CCCCN)C(=O)N[C@H]1C[C@@H](C(=O)N[C@@H](CCCNC(=N)N)C(=O)N[C@@H](CCC(N)=O)C(=O)N[C@@H](CCCNC(=N)N)C(=O)N[C@@H](CCCNC(=N)N)C(=O)N[C@@H](CCCNC(=N)N)C(=O)NCCC(N)=O)N(CCCNC(=N)N)C1` (Ac-FGRKK[Pro(N-(CH2)3Gua,cis-4-NH-)]RQRRR[βAla]-NH2), in assay [1], the pIC50 was 5.96 and the MIC stood at 10.6 µM (≈ 18.1 µg/mL). For the same compound, in assay [2], the pIC50 was 5.70 and the minimal inhibitory concentration (MIC) amounted to 13 µM (≈ 22.2 µg/mL).

In assay [1], `CC(=O)N[C@@H](Cc1ccccc1)C(=O)NCC(=O)N[C@H]1C[C@@H](C(=O)N[C@@H](CCCCN)C(=O)N[C@@H](CCCCN)C(=O)N[C@@H](CCCNC(=N)N)C(=O)N[C@H]2C[C@@H](C(=O)N[C@@H](CCC(N)=O)C(=O)N[C@@H](CCCNC(=N)N)C(=O)N[C@@H](CCCNC(=N)N)C(=O)N[C@H]3C[C@@H](C(=O)NCCC(N)=O)N(CCCN)C3)N(CCCN)C2)N(CCCN)C1` (Ac-FG[X1]KKR[X1]QRR[X1][βAla]-NH2) had a pIC50 of 5.84 and a minimal inhibitory concentration (MIC) of 14 µM (≈ 23.7 µg/mL). In assay [2], this compound gave a negative-log IC50 (pIC50) of 5.59 and an MIC of 23.5 µM (≈ 39.8 µg/mL).

In assay [1], `CC(=O)N[C@@H](Cc1ccccc1)C(=O)NCC(=O)N1C[C@@H](NC(=N)N)C[C@H]1C(=O)N[C@@H](CCCCN)C(=O)N[C@@H](CCCCN)C(=O)N[C@@H](CCCNC(=N)N)C(=O)N1C[C@@H](NC(=N)N)C[C@H]1C(=O)N[C@@H](CCC(N)=O)C(=O)N[C@@H](CCCNC(=N)N)C(=O)N[C@@H](CCCNC(=N)N)C(=O)N1C[C@@H](NC(=N)N)C[C@H]1C(=O)NCCC(N)=O` (Ac-FG[Pro(cis-4-guanidino)]KKR[Pro(cis-4-guanidino)]QRR[Pro(cis-4-guanidino)][βAla]-NH2) had a pIC50 of 6.30 and a minimal inhibitory concentration (MIC) of 6 µM (≈ 9.9 µg/mL). In assay [2], this compound showed a pIC50 of 5.88 and an MIC of 15 µM (≈ 24.7 µg/mL).

For the compound `CC(=O)N[C@@H](Cc1ccccc1)C(=O)NCC(=O)N[C@H]1C[C@@H](C(=O)N[C@@H](CCCCN)C(=O)N[C@@H](CCCCN)C(=O)N[C@@H](CCCNC(=N)N)C(=O)N[C@H]2C[C@@H](C(=O)N[C@@H](CCC(N)=O)C(=O)N[C@H]3C[C@@H](C(=O)N[C@@H](CCCNC(=N)N)C(=O)N[C@H]4C[C@@H](C(=O)NCCN)N(CCCN)C4)N(CCCN)C3)N(CCCN)C2)N(CCCN)C1` (Ac-FG[X1]KKR[X1]Q[X1]R[X1]-Ethylenediamine), in assay [1], the pIC50 is 5.97 and the minimum inhibitory concentration (MIC) was determined as 6.6 µM (≈ 11.1 µg/mL). In assay [2], this compound showed a pIC50 of 5.55 and an MIC of 12 µM (≈ 20.2 µg/mL).

Turning to `CC(=O)N[C@@H](Cc1ccccc1)C(=O)NCC(=O)N[C@H]1C[C@@H](C(=O)N[C@@H](CCCCN)C(=O)N[C@@H](CCCCN)C(=O)N[C@@H](CCCNC(=N)N)C(=O)N[C@H]2C[C@@H](C(=O)N[C@@H](CCC(N)=O)C(=O)N[C@H]3C[C@@H](C(=O)N[C@@H](CCCNC(=N)N)C(=O)N[C@H]4C[C@@H](C(=O)NCCC(N)=O)N(CCCNC(=N)N)C4)N(CCCNC(=N)N)C3)N(CCCNC(=N)N)C2)N(CCCNC(=N)N)C1`, the figures for the pIC50 in assay [1] and in assay [2] were 5.63 and 5.51, respectively. The MIC in assay [1] came to 11.7 µM (≈ 22 µg/mL); in assay [2] it was 24.6 µM (≈ 46.2 µg/mL).

For `CO[C@H]1/C=C/O[C@@]2(C)Oc3c(C)c(O)c4c(O)c(c(/C=N/N5CCN(C)CC5)c(O)c4c3C2=O)NC(=O)/C(C)=C\C=C\[C@H](C)[C@H](O)[C@@H](C)[C@@H](O)[C@@H](C)[C@H](OC(C)=O)[C@@H]1C` [RIFAMPIN], the MIC in assay [1] and in assay [2] was more than 12.1 µM each time.

With `CC(=O)N[C@@H](Cc1ccccc1)C(=O)NCC(=O)N[C@@H](CCCNC(=N)N)C(=O)N[C@@H](CCCCN)C(=O)N[C@@H](CCCCN)C(=O)N1C[C@@H](NC(=N)N)C[C@H]1C(=O)N[C@@H](CCCNC(=N)N)C(=O)N[C@@H](CCC(N)=O)C(=O)N[C@@H](CCCNC(=N)N)C(=O)N[C@@H](CCCNC(=N)N)C(=O)N[C@@H](CCCNC(=N)N)C(=O)NCCC(N)=O` (Ac-FGRKK[Pro(cis-4-guanidino)]RQRRR[βAla]-NH2), in assay [1], the pIC50 was 5.49 and the minimal inhibitory concentration (MIC) was 14.5 µM (≈ 24 µg/mL). In assay [2], this compound had a pIC50 of 5.57 and a minimal inhibitory concentration (MIC) of 15.1 µM (≈ 25 µg/mL).

As for `NC(=O)c1cnccn1` [PYRAZINAMIDE], the MIC in assay [1] and in assay [2] was more than 100 µM throughout.

Turning to `CC(=O)N[C@@H](Cc1ccccc1)C(=O)NCC(=O)N1C[C@@H](NC(=N)N)C[C@H]1C(=O)N[C@@H](CCCCN)C(=O)N[C@@H](CCCCN)C(=O)N[C@@H](CCCNC(=N)N)C(=O)N1C[C@@H](NC(=N)N)C[C@H]1C(=O)N[C@@H](CCC(N)=O)C(=O)N1C[C@@H](NC(=N)N)C[C@H]1C(=O)N[C@@H](CCCNC(=N)N)C(=O)N1C[C@@H](NC(=N)N)C[C@H]1C(=O)NCCC(N)=O` (Ac-FG[Pro(cis-4-guanidino)]KKR[Pro(cis-4-guanidino)]Q[Pro(cis-4-guanidino)]R[Pro(cis-4-guanidino)][βAla]-NH2), in assay [1], the negative logarithm of the IC50 (pIC50) was 5.72 and 21.5 µM (≈ 35.4 µg/mL) was the least that counted as inhibitory (MIC). Moreover, in assay [2], the pIC50 is 4.97 and the lowest concentration to inhibit growth (MIC) was 26.4 µM (≈ 43.5 µg/mL).

As to `CC(=O)N[C@@H](Cc1ccccc1)C(=O)NCC(=O)N[C@H]1C[C@@H](C(=O)N[C@@H](CCCCN)C(=O)N[C@@H](CCCCN)C(=O)N[C@@H](CCCNC(=N)N)C(=O)N[C@H]2C[C@@H](C(=O)N[C@@H](CCC(N)=O)C(=O)N[C@@H](CCCNC(=N)N)C(=O)N[C@@H](CCCNC(=N)N)C(=O)N[C@H]3C[C@@H](C(=O)NCCC(N)=O)N(CCCNC(=N)N)C3)N(CCCNC(=N)N)C2)N(CCCNC(=N)N)C1` (Ac-FG[Pro(N-(CH2)3Gua,cis-4-NH-)]KKR[Pro(N-(CH2)3Gua,cis-4-NH-)]QRR[Pro(N-(CH2)3Gua,cis-4-NH-)][βAla]-NH2), in assay [1], the pIC50 is 6.17 and the MIC came to 10.4 µM (≈ 18.9 µg/mL). Moreover, in assay [2], the pIC50 was 5.19 and the MIC worked out at 25.3 µM (≈ 46.1 µg/mL).

As to `CC(=O)N[C@@H](Cc1ccccc1)C(=O)NCC(=O)N[C@@H](CCCNC(=N)N)C(=O)N[C@@H](CCCCN)C(=O)N[C@@H](CCCCN)C(=O)N[C@@H](CCCNC(=N)N)C(=O)N[C@@H](CCCNC(=N)N)C(=O)N[C@@H](CCC(N)=O)C(=O)N[C@@H](CCCNC(=N)N)C(=O)N[C@@H](CCCNC(=N)N)C(=O)N[C@H]1C[C@@H](C(=O)NCCC(N)=O)N(CCCNC(=N)N)C1` (Ac-FGRKKRRQRR[Pro(N-(CH2)3Gua,cis-4-NH-)][βAla]-NH2), in assay [1], the pIC50 is 5.89 and the MIC was found to be 12 µM (≈ 20.5 µg/mL). Besides, in assay [2], the pIC50 is 5.73 and the MIC amounted to 22.1 µM (≈ 37.8 µg/mL).

Take `CC(=O)N[C@@H](Cc1ccccc1)C(=O)NCC(=O)N[C@@H](CCCNC(=N)N)C(=O)N[C@@H](CCCCN)C(=O)N[C@@H](CCCCN)C(=O)N[C@@H](CCCNC(=N)N)C(=O)N[C@@H](CCCNC(=N)N)C(=O)N[C@@H](CCC(N)=O)C(=O)N[C@@H](CCCNC(=N)N)C(=O)N[C@@H](CCCNC(=N)N)C(=O)N[C@@H](CCCNC(=N)N)C(N)=O`: the pIC50 in assay [1] was 4.72; in assay [2], less than 4.22.
